Test results taken from ChEMBL document CHEMBL1130510, “Synthesis and in vitro cytotoxicity of aminocoumarin platinum(II) complexes” (Bioorg Med Chem Lett, 1997).

Columns and labels:
[1] = system: Caco-2; assay: Compound was tested in vitro for its cytotoxic activity against Caco-2T cells in MTT assay and activity is expressed as IC50; format: functional, cell-based, Homo sapiens
[2] = system: Caco-2; assay: Compound was tested in vitro for its cytotoxic activity against Caco-2T cells in MTT assay and activity is expressed as IC80; format: functional, cell-based; details: Homo sapiens

Substance	IC50 [1] [µg/mL]	IC80 [2] [µg/mL]
3-Acetamido-6-Aminocoumarin Platinum (II) Complex [listing 1 of 2 here]	80	
3-Acetamido-6-Aminocoumarin Platinum (II) Complex [listing 2 of 2 here]		30
6-Aminocoumarin Platinum (II) Complex		100
7-Amino-4-Methyl-Coumarin Platinum (II) Complex [listing 1 of 2 here]	100	
7-Amino-4-Methyl-Coumarin Platinum (II) Complex [listing 2 of 2 here]		30
7-Amino-4-Trifluoromethyl-Coumarin Platinum (II) Complex [listing 1 of 2 here]	10	
7-Amino-4-Trifluoromethyl-Coumarin Platinum (II) Complex [listing 2 of 2 here]		5
